Experimental data published in PMC10708539, “Two Antimicrobial Peptides Derived from Bacillus and Their Properties” (Molecules, 2023).
Ends that are not written are not given here.

Tests used:
Sa. enterica ACCC 01996 = assay: MIC by double dilution method; type: cell-based, Salmonella enterica; conditions: 96-well plate, culture OD600 0.5 mixed 1:1 with peptide, 37 °C 12–18 h, OD600 read-out, minimum concentration of 100% growth inhibition, three parallel sets
Protocol: (§1) The minimum inhibitory concentrations (MICs) of purified antimicrobial peptides against St. aureus ACCC 10499, B. cereus ACCC 04315, and Sa. enterica ACCC 01996 were determined by the double dilution method. The indicator bacteria cultures were diluted to an OD600 of 0.5 respectively, of which 50 μL of them were added into the sterile 96-well plate, and then 50 μL antimicrobial peptide samples with different concentrations were mixed with each indicator bacterium at a 1:1 ratio. The experiment was performed in three parallel sets. After incubation at 37 °C for 12–18 h, the OD600 value was determined by an Automatic growth curve analyzer (Bioscreen C, Turku, Finland), and the minimum concentration of 100% inhibition of indicator bacteria growth was used as the minimum inhibitory concentration.

trypsin = assay: Protease stability of antimicrobial peptides; type: in vitro ADME; conditions: mixed 1:1 with 1 mg/mL trypsin, water bath 37 °C 1 h, then boiling water bath 5 min; control without protease; read-out inhibition circles against St. aureus ACCC 10499
Protocol: (§2) Appropriate amounts of purified antimicrobial peptide samples were placed in a water bath at 40 °C, 60 °C, 80 °C, 90 °C, and 100 °C for 30 min and high-temperature autoclave sterilization at 121 °C for 15 min respectively, to carry out temperature sensitivity tests. St. aureus ACCC 10499 was used as an indicator bacterium, and untreated samples were used as controls, with three parallel groups for each sample to observe the change in antibacterial activity. Similarly, the pH of the same amount for the antimicrobial peptide samples was adjusted to 2~10 in intervals of 1, and the neutral pH was 7.0 as the control. The samples with a different pH were kept in a water bath at 37 °C for 30 min. St. aureus ACCC 10499 was used as an indicator bacterium to detect the resistance of the antimicrobial peptide to an acid and base. In addition, appropriate antimicrobial peptide samples were mixed with 1 mg/mL solution of protease K, trypsin, and pepsin at 1:1, and were kept in a water bath at 37 °C for 1 h, followed by a boiling water bath for 5 min to inactivate the enzymes. The samples without protease treatment were used as controls and the changes in antibacterial activity were observed.

protease K = protease K (Parengyodontium album, UniProt P06873); assay: Protease stability of antimicrobial peptides; type: in vitro ADME; conditions: mixed 1:1 with 1 mg/mL protease K, water bath 37 °C 1 h, then boiling water bath 5 min; control without protease; read-out inhibition circles against St. aureus ACCC 10499
Protocol: as §2

pepsin = assay: Protease stability of antimicrobial peptides; type: in vitro ADME; conditions: mixed 1:1 with 1 mg/mL pepsin, water bath 37 °C 1 h, then boiling water bath 5 min; control without protease; read-out inhibition circles against St. aureus ACCC 10499
Protocol: as §2

St. aureus ACCC 10499 = type: cell-based, Staphylococcus aureus
Protocol: as §1

B. cereus ACCC 04315 = type: cell-based, Bacillus cereus
Protocol: as §1

Sequence of protease K (P06873 106-384): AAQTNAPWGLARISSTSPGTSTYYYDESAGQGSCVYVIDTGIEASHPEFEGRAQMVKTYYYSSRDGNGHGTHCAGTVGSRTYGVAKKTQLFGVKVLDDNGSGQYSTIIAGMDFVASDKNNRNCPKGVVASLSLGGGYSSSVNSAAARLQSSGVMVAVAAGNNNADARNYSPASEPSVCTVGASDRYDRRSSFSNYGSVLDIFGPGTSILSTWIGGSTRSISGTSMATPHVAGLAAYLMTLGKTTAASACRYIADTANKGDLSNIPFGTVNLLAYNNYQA

Sequence	MIC (Sa. enterica ACCC 01996) [µg/mL]	MIC (Sa. enterica ACCC 01996; listed as peptide-II) [µg/mL]	Antibacterial activity after treatment with trypsin (trypsin)	Antibacterial activity after treatment with protease K (protease K)	Antibacterial activity after treatment with pepsin (pepsin)	MIC (St. aureus ACCC 10499) [µg/mL]	MIC (B. cereus ACCC 04315) [µg/mL]
FSGSGSGTAFTLR [Peptide-II]	16	8	no significant effect	significantly reduced	no significant effect	16	64
VFLENVLR [Peptide-I]	8		insensitive	insensitive	insensitive	64	32
